These molecules were tested against T1, human GPR119 receptor (Homo sapiens, UniProt Q8TDV5, S329A/T327A) (assay: cAMP assay (LANCE cAMP-384) in HEK293 cells stably expressing mutant human GPR119 receptor). Details: HEK293, 20 min; 10 μM; the 30th table; read-out: stimulation in % at 10 μM.
T1 construct: N-terminal leader […]; expressed in transfected cells
T1 sequence (Q8TDV5 with tags, fused parts or gaps T327A/S329A): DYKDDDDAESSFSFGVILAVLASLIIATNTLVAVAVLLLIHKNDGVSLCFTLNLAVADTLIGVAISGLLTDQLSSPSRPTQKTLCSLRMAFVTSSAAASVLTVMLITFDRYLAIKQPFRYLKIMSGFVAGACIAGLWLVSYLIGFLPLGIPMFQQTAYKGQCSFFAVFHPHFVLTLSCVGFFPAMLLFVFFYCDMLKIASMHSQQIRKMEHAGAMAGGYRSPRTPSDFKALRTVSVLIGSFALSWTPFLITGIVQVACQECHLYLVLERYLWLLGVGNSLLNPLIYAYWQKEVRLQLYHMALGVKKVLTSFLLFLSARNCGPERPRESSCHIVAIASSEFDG
Format: cell-based
Procedure, shortened: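 HEK293 cells stably expressing human GPR119 (T327A/S329A, modified N-terminus), 1000 cells/well, exposed to compound for 20 min at 37° C. cAMP quantified by LANCE TR-FRET against a standard curve; EC50 from 12 points, 30 μM to 100 pM, or % stimulation at 10 μM.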
For `Cc1nnn(Cc2cnc(N3CCC(=NOC4CCN(C(=O)OC(C)C)CC4)CC3)c(F)c2)n1` [Example 54-5], the activation at 10 µM was 75%.

Same assay, conditions: HEK293, 20 min; at 10 μM; printed in EC50 column of the 34th table; read-out: stimulation in % at 10 μM
`CC(C)OC(=O)CN1CCC(ON=C2CCN(c3ccc(S(C)(=O)=O)cc3F)CC2)CC1` [Example 65-3] showed an activation at 10 µM of 64%.

Same assay, conditions: HEK293, 20 min; single concentration 10 μM; given where no EC50 value could be determined; read-out: % stimulation at 10 μM
Molecule `CC(C)OC(=O)N1CCC(ON=C2CCN(c3cc(F)c(-c4nnn[nH]4)cc3F)CC2)CC1` [Example 27-28] has an activation at 10 µM of 86%.

Same assay, conditions: cAMP accumulation, HEK293 cells stably expressing mutant human GPR119; read-out: EC50
With `CC(C)(C)OC(=O)N1CCC(ON=C2CCN(c3ccc(S(C)(=O)=O)cc3F)CC2)CC1` [Example 1-1, tert-Butyl 4-[1-(2-Fluoro-4-methanesulfonylphenyl)piperidin-4-ylideneaminooxy]piperidine-1-carboxylate] the EC50 was 29 nM. `CCOC(=O)CNC(=O)NCc1cc(F)c(N2CCC(=NOC3CCN(C(=O)OC(C)C)CC3)CC2)cc1F` [Example 16-9] was tested, and the EC50 was 401 nM. Molecule `CC(C)OC(=O)N1CCC(ON=C2CCN(c3nc(F)c(F)cc3F)CC2)CC1` [Example 2-75] has an EC50 of 453 nM. `CC(C)OC(=O)N1CCC(ON=C2CCN(c3ccc(C=O)cc3F)CC2)CC1` [Example 2-22] showed an EC50 of 318 nM. `CC(C)OC(=O)N1CCC(ON=C2CCN(c3cc(F)c(Cn4cnc5ncccc54)cc3F)CC2)CC1` [Example 14-5] was tested, and the EC50 was 374 nM. `CC(C)OC(=O)N1CCC(ON=C2CCN(c3ncc(CO)cc3F)CC2)CC1` [Example 53-1, 4-(3′-Fluoro-5′-hydroxymethyl-2,3,5,6-tetrahydro-[1,2′]bipyridinyl-4-ylideneaminooxy)-piperidine-1-carboxylic acid isopropyl ester] gave an EC50 of 224 nM. With `CC(C)OC(=O)N1CCC(ON=C2CCN(c3cc(F)c(-c4cn[nH]c4)cc3F)CC2)CC1` [Example 27-10] the EC50 was 177 nM. `CC(C)OC(=O)N1CCC(ON=C2CCN(c3cc(F)c(CN(C)S(C)(=O)=O)cc3F)CC2)CC1` [Example 18-2] showed an EC50 of 150 nM. Work on `CC(C)OC(=O)N1CCC(ON=C2CCN(c3cc(F)c(COC(=O)[C@@H](NC(=O)OC(C)(C)C)C(C)C)cc3F)CC2)CC1` [Example 42-1, 4-{1-[4-((S)-2-tert-Butoxycarbonylamino-3-methyl-butyryloxymethyl)-2,5-difluoro-phenyl]-piperidin-4-ylideneaminooxy}-piperidine-1-carboxylic acid isopropyl ester] yielded an EC50 of 928 nM. With `CC(C)OC(=O)N1CCC(ON=C2CCN(c3cc(F)c(CO)cc3F)CC2)CC1` [Example 10-1, 4-[1-(2,5-Difluoro-4-hydroxymethyl-phenyl)-piperidin-4-ylideneaminooxy]-piperidine-1-carboxylic acid isopropyl ester] the EC50 was 9 nM. With `CC(C)OC(=O)N1CCC(ON=C2CCN(c3cc(F)c(C=O)cc3F)CC2)CC1` [Example 2-3] the EC50 was 14 nM. `CC(C)OC(=O)N1CCC(ON=C2CCN(c3cc(F)c(-c4ccccn4)cc3F)CC2)CC1` [Example 27-27] gave an EC50 of 159 nM. For `CC(C)OC(=O)N1CCC(ON=C2CCN(c3nccc(N(C)C)n3)CC2)CC1` [Example 2-44], the EC50 was greater than 10000 nM. `CC(=O)c1cc(F)c(N2CCC(=NOC3CCN(C(=O)OC(C)C)CC3)CC2)cc1F` [Example 2-23] gave an EC50 of 375 nM. Molecule `CC(C)OC(=O)N1CCC(ON=C2CCN(c3cc(F)c(-c4ncccn4)cc3F)CC2)CC1` [Example 27-20] has an EC50 of 272 nM. Work on `CC(C)OC(=O)N1CCC(ON=C2CCN(c3cc(F)c(C(=O)NCCCN)cc3F)CC2)CC1` [Example 31-3] yielded an EC50 of 542 nM. `CC(C)OC(=O)N1CCC(ON=C2CCN(c3cc(F)c(-c4cccs4)cc3F)CC2)CC1` [Example 27-1, 4-[1-(2,5-Difluoro-4-thiophen-2-yl-phenyl)-piperidin-4-ylideneaminooxy]-piperidine-1-carboxylic acid isopropyl ester] was tested, and the EC50 was 201 nM. For `Cc1cnn(Cc2cc(F)c(N3CCC(=NOC4CCN(C(=O)OC(C)C)CC4)CC3)cc2F)c1` [Example 14-10], the EC50 was 8 nM. In the case of `CC(C)OC(=O)N1CCC(ON=C2CCN(c3nccc(Cl)n3)CC2)CC1` [Example 2-47], the EC50 is reported as 2010 nM. With `CC(C)OC(=O)N1CCC(ON=C2CCN(c3cc(F)c(CNCCF)cc3F)CC2)CC1` [Example 5-9] the EC50 was 703 nM. For `CC(C)OC(=O)N1CCC(ON=C2CCN(c3ncc([N+](=O)[O-])s3)CC2)CC1` [Example 2-13], the EC50 was 5110 nM. Work on `CC(C)OC(=O)N1CCC(ON=C2CCN(c3ncccc3F)CC2)CC1` [Example 2-37] yielded an EC50 of 630 nM.

Same assay, conditions: the 15th table; read-out: EC50
In the case of `CC(C)OC(=O)N1CCC(ON=C2CCN(c3cc(F)c(C(=O)N4CCCC[C@H]4CN4CCCC4)cc3F)CC2)CC1` [Example 29-31], the EC50 is reported as 225 nM. `COCCCNC(=O)c1cc(F)c(N2CCC(=NOC3CCN(C(=O)OC(C)C)CC3)CC2)cc1F` [Example 29-10] showed an EC50 of 28 nM. For `CC(C)OC(=O)N1CCC(ON=C2CCN(c3cc(F)c(C(=O)N4CCNCC4)cc3F)CC2)CC1` [Example 29-3], the EC50 was 512 nM. `CC(C)OC(=O)N1CCC(ON=C2CCN(c3cc(F)c(C(=O)NCCN(C)C)cc3F)CC2)CC1` [Example 29-2] gave an EC50 of 450 nM. `CC(CO)NC(=O)c1cc(F)c(N2CCC(=NOC3CCN(C(=O)OC(C)C)CC3)CC2)cc1F` (stereo not drawn) [Example 29-8] was tested, and the EC50 was 81 nM.

Same assay, conditions: the 19th table; unit inferred; read-out: EC 50
Work on `CCc1cnc(N2CCC(ON=C3CCN(c4cc(F)c(C(=O)N5CC[C@@H](N)C5)cc4F)CC3)CC2)nc1` [Example 29-118] yielded an EC50 of 201 nM. `CCc1cnc(N2CCC(ON=C3CCN(c4cc(F)c(C(=O)NCC5CCNC5)cc4F)CC3)CC2)nc1` (stereo not drawn) [Example 29-139] showed an EC50 of 92 nM. With `CCc1cnc(N2CCC(ON=C3CCN(c4cc(F)c(C(=O)N5CCCC(CNC)C5)cc4F)CC3)CC2)nc1` (stereo not drawn) [Example 29-129] the EC50 was 50 nM.

Same assay, conditions: the 26th table; read-out: EC50
With `CC(C)OC(=O)N1CCC(ON=C2CCN(c3ncc(S(C)(=O)=O)cc3F)CC2)CC1` [Example 46-1, 4 (5′-METHYLSULFONYL-3′-FLUORO-2,3,5,6-TETRAHYDRO-[1,2′]BIPYRIDINYL-4-YLIDENEAMINOOXY)-PIPERIDINE-1-CARBOXYLIC ACID ISOPROPYL ESTER] the EC50 was 131 nM.

Same assay, conditions: the 31st table; read-out: EC50
With `CC(C)OC(=O)N1CCC(ON=C2CN(c3ccc(S(C)(=O)=O)cc3F)C2)CC1` [Example 61-3] the EC50 was 161 nM.

Same assay, conditions: the 32nd table; read-out: EC50
Work on `Cc1cccnc1N1CCC(ON=C2CCN(c3ccc(S(C)(=O)=O)cc3F)CC2)CC1` [Example 63-3] yielded an EC50 greater than 10000 nM.

Same assay, conditions: the 33rd table; read-out: EC50
`CC1CC1COC(=O)N1CCC(ON=C2CCN(c3ccc(S(C)(=O)=O)cc3F)CC2)CC1` (stereo not drawn) [Example 64-8] showed an EC50 of 32 nM. With `COC(=O)C(C)(C)COC(=O)N1CCC(ON=C2CCN(c3ccc(S(C)(=O)=O)cc3F)CC2)CC1` [Example 64-30] the EC50 was 277 nM. For `CS(=O)(=O)c1ccc(N2CCC(=NOC3CCN(C(=O)OC4CCNC4)CC3)CC2)c(F)c1` (stereo not drawn) [Example 64-36], the EC50 was greater than 10000 nM. Work on `COC(=O)CC(C)OC(=O)N1CCC(ON=C2CCN(c3ccc(S(C)(=O)=O)cc3F)CC2)CC1` (stereo not drawn) [Example 64-22] yielded an EC50 of 193 nM.

Same assay, conditions: the 34th table, compounds 65-1 to 65-24; read-out: EC50
Work on `CS(=O)(=O)c1ccc(N2CCC(=NOC3CCN(C(=O)Oc4ccccc4)CC3)CC2)c(F)c1` [Example 65-12] yielded an EC50 of 57 nM.

Same assay, conditions: the 36th table, compounds 66-1 to 66-51; read-out: EC50
`COc1ccc(CN2CCC(ON=C3CCN(c4ccc(S(C)(=O)=O)cc4F)CC3)CC2)cc1` [Example 66-45] was tested, and the EC50 was 6000 nM. With `CS(=O)(=O)c1ccc(N2CCC(=NOC3CCN(Cc4ccccc4Cl)CC3)CC2)c(F)c1` [Example 66-17] the EC50 was 661 nM. `Cn1cc(Cl)c(CN2CCC(ON=C3CCN(c4ccc(S(C)(=O)=O)cc4F)CC3)CC2)n1` [Example 66-5] gave an EC50 greater than 10000 nM. `CS(=O)(=O)c1ccc(N2CCC(=NOC3CCN(Cc4ccc(Br)cc4)CC3)CC2)c(F)c1` [Example 66-41] gave an EC50 of 609 nM.

Same assay, conditions: the 37th table, compounds 66-52 to 66-64; read-out: EC50
Work on `CCc1ccc(C(C)N2CCC(ON=C3CCN(c4cc(F)c(S(C)(=O)=O)cc4F)CC3)CC2)cc1` (stereo not drawn) [Example 66-58] yielded an EC50 of 72 nM.

Same assay, conditions: the 38th table, compounds 66-65 to 66-72; read-out: EC50
With `CNC(=O)c1cc(F)c(N2CCC(=NOC3CCN(Cc4ccc(Cl)cc4)CC3)CC2)cc1F` [Example 66-68] the EC50 was 365 nM.

Same assay, conditions: the 43rd table, compounds 75-1 to 75-38; read-out: EC50
Work on `CC(C)OC(=O)N1CCC(ON=C2CCN(c3cc(F)c(CC(=O)N4CCCC(CN)C4)cc3F)CC2)CC1` (stereo not drawn) [Example 75-22] yielded an EC50 of 108 nM. Work on `CC(C)OC(=O)N1CCC(ON=C2CCN(c3cc(F)c(CC(=O)NCC4CCNCC4)cc3F)CC2)CC1` [Example 75-26] yielded an EC50 of 236 nM. For `CC(C)OC(=O)N1CCC(ON=C2CCN(c3cc(F)c(CC(=O)NC4CCNC4)cc3F)CC2)CC1` (stereo not drawn) [Example 75-17], the EC50 was 152 nM. For `CC(C)OC(=O)N1CCC(ON=C2CCN(c3cc(F)c(CC(=O)NC[C@@H]4CCCN4)cc3F)CC2)CC1` [Example 75-10], the EC50 was 203 nM. With `CC(C)OC(=O)N1CCC(ON=C2CCN(c3cc(F)c(CC(=O)N4CCNCC4)cc3F)CC2)CC1` [Example 75-25] the EC50 was 92 nM. `CC(C)OC(=O)N1CCC(ON=C2CCN(c3cc(F)c(CC(=O)N4CCCCC4CN4CCOCC4)cc3F)CC2)CC1` (stereo not drawn) [Example 75-31] was tested, and the EC50 was 192 nM.

Same assay, conditions: the 44th table, compounds 77-1 to 77-14; read-out: EC50
`CCc1cnc(N2CCC(ON=C3CCN(c4cc(F)c(CC(=O)N5CCC[C@@H](N)C5)cc4F)CC3)CC2)nc1` [Example 77-8] showed an EC50 of 30 nM.

Reference: patent US8293729B2 (Boehringer Ingelheim International GmbH, priority 2009, dated 2012)
